# Counter-ions that a name gives are not always drawn.
# Experiments:
# [1] = PK experiments in Wistar rats, plasma compound (I) after oral dosing of prodrugs; format: in vivo, rat; conditions: FIG. 1, doses equal to 287 μg/kg of compound (I)
# Experimental: Plasma was placed on water-ice following collection. Final storage at approximately −70° C.
# Mobile phase B: Acetonitrile. […] Flow rate 0.5 mL/min.
# The rats had unrestricted access to the diet.
# Mobile phase B: Acetonitrile+0.2% formic acid. […] Flow rate 0.3 mL/min.
# Dosing and blood sampling for compound (Ic): Han Wistar rats were supplied by Envigo, UK. […] The rats received a standard laboratory diet Teklad 2014C. The rats had unrestricted access to the diet.
# [2] = Stability studies of solid forms in sealed polyethylene bags (appearance, LC-UV, Karl Fischer water, XRPD); format: physicochemical; conditions: for Overall outcome of stability testing, in words: 25° C./60% RH and 40° C./75% RH; for Physical form: XRPD
# Experimental: The substances were packed individually in sealed polyethylene bags, with a carton box as a secondary packaging material. During stability the different batches were tested for visual appearance, assay (anhydrous i.e. calculated as water free compound), impurities and water content. In addition, XRPD was been performed as described in Example 3 at selected time points.
# LC-UV was run on Agilent HPLC consisting of Agilent 1200 HPLC or equivalent including autosampler and DAD detector (operating at 278 nm).
# LC-conditions: The column was Synergi Polar-RP 4 μm; 4.6×150 mm operating at 40° C. with 1.0 ml/min of a binary gradient consisting of water/acetonitrile+[…] (90:10) (A) and water/acetonitrile+[…] (35:65) (B).
# (§1) The amount of impurities was determined as % area of the peak of impurity relative to the area of the main peak.
# The water content was determined by coulometric Karl Fischer titration according to the European Pharmacopoeia, chapter 2.5.32 (Metrohm 874 Oven Sample Processor and Metrohm 851 KF Coulometer). The water content was evaporated by heating samples to 150° C. and the water vapor was transferred by nitrogen to the titration chamber where it was titrated to endpoint using Hydranal Coulomat AG Oven (article number 34739) titration reagent.
# [3] = Stress stability, open dishes in the dark, LC-UV impurities; format: physicochemical; conditions: open dish, % area by LC-UV
# Experimental: For the stress stability studies, the substances were stored in open dishes in the dark at 40° C./75% RH, 60° C. and 60° C./80% RH.
# as §1
# The stress stability testing was performed as described above, and the amount of degradation products were determined based on the LC-UV method described above.
# [4] = Dynamic vapor sorption (DVS); format: physicochemical; conditions: for Hygroscopicity / behaviour towards humidity (DVS), in words: DH1: 5-80% RH, HH: 20-95% RH, K^+ salt: two cycles
# Experimental: Dynamic vapor sorption (DVS) was further used to evaluate selected solid forms. Hygroscopicity and dehydration behavior can be investigated by DVS analysis. DVS experiments were performed using a DVS Advantage 01 instrument from Surface Measurement Systems. Samples of 4-10 mg of the solid forms were used for the analysis. […]
# [5] = Grinding, pressure and milling followed by XRPD; format: physicochemical; conditions: for Crystallinity by XRPD after subsequent storage of treated sample: 95% RH for 1 week; for Crystallinity by XRPD after pressure: DH1: 300 PSI for 5 minutes, K^+ salt: IR-press for 5 minutes; for Crystallinity by XRPD after grinding: grinded by hand with mortar and pestle
# Experimental: A sample of the heptahydrate was grinded by hand using mortar and pestle for 2 minutes, and subsequently analyzed by XRPD. […] The samples were analysed by XRPD after the treatment. Subsequently, the samples were placed at 95% RH for 1 week and reanalysed by XRPD.
# rat locomotor activity = assay: Rat locomotor activity (hyperactivity) assay, open field, with PK/PD; format: in vivo
# Experimental: Mass spectrometer (UPCLC-MS/MS) Waters Acquity I-Class-Waters Xevo TQ-S. Analytical column Acquity HSS T3 C18 50×2.1 mm, 1.8 μm. Mobile phase A: 10 mM NH4—Formate 0.2% formic acid:Acetonitril (95:5). Mobile phase B: 10 mM NH4—Formate 0.2% formic acid:Acetonitril (5:95). Gradient run from 95/5% to 5/95% in 2.40 minutes. Flow rate 0.3 mL/min. MRM detection of test items and the added analytical standards.
# Animals for the study were as described in Example 10. Additionally, rats were administered a single dose of apomorphine subcutaneously.
# In total, 206 male CD rats (Charles River, Germany) weighing 200-250 grams (165-190 grams upon arrival) were used in the study. Animals were housed at a standard temperature (22±1° C.) and in a light-controlled environment (lights on from 7 am to […]) with ad libitum access to food and water. The experiment described below was performed in accordance with the standard operating procedures of Charles River Discovery Research Services Finland Ltd. and in accordance with the national Animal Experiment Board of Finland (Eläinkoelautakunta, ELLA) authority on animal testing.
# The test device is a square Plexiglass-arena (measuring 40×40×40 cm), in which the movement paths of the rats are recorded by an activity monitor (Med. Associates Inc.). Before the test period is initiated, rats are habituated to their test cage for 60 minutes. Upon completion of habituation, animals were treated with either compound or vehicle and placed back into the open field apparatus. The main test parameter measured is ambulatory distance (recorded in 5-minute segments). Overall time of measurement after receiving initial treatment was 360 minutes. Total follow up period in the study was 420 min, including 60 min of habituation.
Compound,"Water content, % ([2]; 25° C./60% RH, 3 months)","Water content, % ([2]; 25° C./60% RH, 6 months)","Physical form ([2]; 25° C./60% RH, 6 months)","Water content, % ([2]; 25° C./60% RH, 9 months)","Physical form ([2]; 25° C./60% RH, 9 months)","Water content, % ([2]; 25° C./60% RH, 18 months)","Water content, % ([2]; 25° C./60% RH, Initial)","Physical form ([2]; 25° C./60% RH, Initial)","Water content, % ([2]; 40° C./75% RH, 3 months)","Water content, % ([2]; 40° C./75% RH, 6 months)","Physical form ([2]; 40° C./75% RH, 6 months)","Water content, % ([2]; 40° C./75% RH, Initial)","Physical form ([2]; 40° C./75% RH, Initial)","Hygroscopicity / behaviour towards humidity (DVS), in words [4]",Crystallinity by XRPD after pressure [5],Crystallinity by XRPD after grinding [5],other results
CCCN1CCC[C@@H]2Cc3c(ccc4c3OCO4)C[C@H]21 [Compound (Ib)],,,,,,,,,,,,,,,,,"Plasma profile of compound (I) after oral dosing, in words [1]: early and high peak concentrations"
"CCCN1CCC[C@@H]2Cc3c(ccc(O)c3O[C@@H]3O[C@H](C(=O)O)[C@@H](O)[C@H](O)[C@H]3O)C[C@H]21 [K^+ salt, (2S,3S,4S,5R,6S)-3,4,5-trihydroxy-6-(((4aR,10aR)-7-hydroxy-1-propyl-1,2,3,4,4a,5,10,10a-octahydrobenzo[g]quinolin-6-yl)oxy)tetrahydro-2H-pyran-2-carboxylic acid]",0.22%,0.17%,Alfa form,<0.10%,Alfa form,0.23%,0.11%,Alfa form,0.38%,0.25%,Alfa form,0.11%,Alfa form,stable towards change in humidity,some broadening of the XRPD reflections,severe broadening of the XRPD reflections,"Overall outcome of stability testing, in words ([2]; listed as potassium salt): remained in the same physical form; Water content, % ([2]; 25° C./60% RH, 13 months): <0.10%; Physical form ([2]; 25° C./60% RH, 13 months): Alfa form; Physical form ([2]; 25° C./60% RH, 18 months): Alfa form; Total sum of impurities after 6 months storage ([3]; 40° C./75% RH, listed as Potassium salt): 0.10%; Total sum of impurities after 6 months storage ([3]; 60° C., listed as Potassium salt): 0.10%; Total sum of impurities after 6 months storage ([3]; 60° C./80% RH, listed as Potassium salt): 1.0%; Weight change (DVS) ([4]; at 80% RH): up to 0.6%; Further weight change (DVS) ([4]; at 90% RH): 1%; Crystallinity by XRPD after subsequent storage of treated sample [5]: regained crystallinity after storage at high humidity"
"CCCN1CCC[C@@H]2Cc3c(ccc(O)c3O[C@@H]3O[C@H](C(=O)O)[C@@H](O)[C@H](O)[C@H]3O)C[C@H]21 [HH, (2S,3S,4S,5R,6S)-3,4,5-trihydroxy-6-(((4aR,10aR)-7-hydroxy-1-propyl-1,2,3,4,4a,5,10,10a-octahydrobenzo[g]quinolin-6-yl)oxy)tetrahydro-2H-pyran-2-carboxylic acid]",22.3%,20.0%,,21.6%,Form C,20.9%,21.6%,,7.6%,7.6%,,21.6%,,absorbs and desorbs water at humidity between 20% RH and 95% RH without changing the crystal form,,,"Overall outcome of stability testing, in words [2]: Changes in visual appearance, water content and physical form (XRPD) were seen; Water content, % ([2]; 25° C./60% RH, 12 months): 15.0%; Physical form ([2]; 40° C./75% RH, 3 months): DH1; Total sum of impurities after 6 months storage ([3]; 40° C./75% RH, listed as Heptahydrate): <0.05%; Total sum of impurities after 6 months storage ([3]; 60° C., listed as Heptahydrate): 4.3%; Total sum of impurities after 6 months storage ([3]; 60° C./80% RH, listed as Heptahydrate): <0.05%; Behaviour at low humidity (DVS), in words ([4]; humidity below 20%): changes into other less hydrated forms; Crystallinity by XRPD after subsequent storage of treated sample ([5]; listed as heptahydrate): regained crystallinity after storage; Crystallinity by XRPD after grinding ([5]; listed as heptahydrate): reflections became a bit broader and an amorphous halo became visible"
"CN1CCc2cccc3c2[C@H]1Cc1ccc(O)c(O)c1-3 [apomorphine, reference compound]",,,,,,,,,,,,,,,,,"Relationship of behavioral effect and plasma concentration (rat locomotor activity; (Id) 100 μg/kg p.o. (FIG. 4), apomorphine 3 mg/kg s.c. (FIG. 5)): correlation between plasma concentrations of apomorphine and hyperactive behavior; Start of locomotor effect post-administration (rat locomotor activity; (Id) 10 to 300 μg/kg p.o., apomorphine 3 mg/kg s.c., pramipexole 0.3 mg/kg s.c., FIG. 2): immediate; Time post administration at which hyperactivity is gone (rat locomotor activity; apomorphine 3 mg/kg s.c., 150-minute time point): 1.5 h"
"CCCN1CCC[C@@H]2Cc3c(ccc(O)c3O[C@@H]3O[C@H](C(=O)O)[C@@H](O)[C@H](O)[C@H]3O)C[C@H]21 [DH1, (2S,3S,4S,5R,6S)-3,4,5-trihydroxy-6-(((4aR,10aR)-7-hydroxy-1-propyl-1,2,3,4,4a,5,10,10a-octahydrobenzo[g]quinolin-6-yl)oxy)tetrahydro-2H-pyran-2-carboxylic acid]",,7.6%,DH1,,,,7.6%,DH1,,7.5%,DH1,7.6%,DH1,non-hygroscopic,did not show sign of decreased crystallinity,did not show sign of decreased crystallinity,"Overall outcome of stability testing, in words ([2]; listed as dihydrate): no changes in appearance, water content or physical form (XRPD); Water content, % ([2]; 25° C./60% RH, 4 months): 7.6%; Physical form ([2]; 25° C./60% RH, 4 months): DH1; Water content, % ([2]; 25° C./60% RH, 10 months): 7.4%; Water content, % ([2]; 40° C./75% RH, 4 months): 7.4%; Physical form ([2]; 40° C./75% RH, 4 months): DH1; Total sum of impurities after 6 months storage ([3]; 40° C./75% RH, listed as Dihydrate): 0.05%; Total sum of impurities after 6 months storage ([3]; 60° C., listed as Dihydrate): 1.0%; Total sum of impurities after 6 months storage ([3]; 60° C./80% RH, listed as Dihydrate): 0.05%; Water absorbed or desorbed (DVS) ([4]; humidity range 5-90% RH): Less than 0.1%; Crystallinity by XRPD after milling ([5]; milled vs un-milled material): no apparent change in crystallinity"

# — patent publication US12421271B2, “Solid forms of (2S,3S,4S,5R,6S)-3,4,5-trihydroxy-6-(((4AR, 10AR)-7-hydroxy-1-propyl-1,2,3,4,4A,5,10,10A-octahydrobenzo[g]quinolin-6-yl)oxy)tetrahydro-2H-pyran-2-carboxylic acid” (H. Lundbeck A/S, priority 2019, dated 2025)
